US8703950B2, “Low ABUK oxycodone, its salts and methods of making same” (Johnson Matthey Public Limited Co., priority 2010, dated 2014)

Experiments:
[1] = Hot acid stress test (aq. HCl, 65° C., 14-hydroxycodeinone monitored by LC/MS); format: physicochemical; details: for growth in 14-hydroxycodeinone in hot acid: 65° C. aq. hydrochloride acid at pH<1, after 24 hours; for ABUK (14-hydroxycodeinone) level, 2 hours in hot acid / ABUK (14-hydroxycodeinone) level, 5 hours in hot acid / ABUK (14-hydroxycodeinone) level, 24 hours in hot acid: 65° C., aq. HCl; for ABUK (14-hydroxycodeinone) level, 0 hours in hot acid (T-zero): before heating, water + 3N aq. HCl
[2] = Dry heat stress test (lab drying oven under air at 62° C., 14-hydroxycodeinone monitored by LC/MS); format: physicochemical; details: for growth of 14-hydroxycodeinone, dry heat: dry heat (greater than 60° C.), after 14 days; for ABUK (14-hydroxycodeinone) level, 4 days at 62° C. / ABUK (14-hydroxycodeinone) level, 7 days at 62° C. / ABUK (14-hydroxycodeinone) level, 14 days at 62° C.: dry heat, under air; for growth in the level of 14-hydroxycodeinone, dry heat at 62° C.: under air at 62° C., monitored for 14 days
Method: A 0.0225 g (0.597 sample of low ABUK oxycodone HCl (T-zero: 3.9 ppm 14-hydroxycodeinone) was placed in a standard lab drying oven under air at 62° C. and the level of 14-hydroxycodeinone was monitored by LC/MS for 14 days. No growth in the level of 14-hydroxycodeinone was observed.
A 0.0225 g (0.597 sample of low ABUK oxycodone (T zero: 3.3 ppm 14-hydroxycodeinone by LC/MS was placed in a standard lab drying oven under air at 62° C. and the level of 14-hydroxycodeinone was monitored by LC/MS for 14 days. No growth in the level of 14-hydroxycodeinone was observed
1.10 Procedure: • Separately inject the diluent as a blank. • Inject the resolution solution once. • Inject the impurity working standard three times. • Inject each sample solution under the full gradient. • Inject the diluent at the end. • Quantify the level of 14-Hydroxy Codeinone in the sample by comparing to the averaged corresponding peak specific response (SR) of the standard solution. • Report the level of 14-Hydroxy Codeinone found in the sample to the nearest 0.0001%. • Report the peak area of the diols for information only.

[3] = mixture of the two diol species in acid, 20 hour period

COc1ccc2c3c1O[C@H]1C(=O)CC[C@@]4(O)[C@@H](C2)N(C)CC[C@]314.Cl [Oxycodone Hydrochloride from Example 11, oxycodone HCl]
growth in 14-hydroxycodeinone in hot acid [1]: no or minimal growth | ABUK (14-hydroxycodeinone) level, 2 hours in hot acid [1]: 3.6 ppm | ABUK (14-hydroxycodeinone) level, 5 hours in hot acid [1]: 4.2 ppm | ABUK (14-hydroxycodeinone) level, 24 hours in hot acid [1]: 6.1 ppm | ABUK (14-hydroxycodeinone) level, 0 hours in hot acid (T-zero) [1]: 2.5 ppm | ABUK (14-hydroxycodeinone) level, T-zero (dry heat test) [2]: 3.9 ppm | growth of 14-hydroxycodeinone, dry heat [2]: no growth | ABUK (14-hydroxycodeinone) level, 4 days at 62° C. [2]: 3.7 ppm | ABUK (14-hydroxycodeinone) level, 7 days at 62° C. [2]: 4.0 ppm | ABUK (14-hydroxycodeinone) level, 14 days at 62° C. [2]: 3.7 ppm | growth in the level of 14-hydroxycodeinone, dry heat at 62° C. [2]: No growth

COc1ccc2c3c1O[C@H]1C(=O)C[C@H](O)[C@@]4(O)[C@@H](C2)N(C)CC[C@]314 (single isomer, unassigned) [peak at RRT 0.91]
degradation on exposure to acid [3]: degraded little

COc1ccc2c3c1O[C@H]1C(=O)CC[C@@]4(O)[C@@H](C2)N(C)CC[C@]314 [Oxycodone Base from Example 9, oxycodone base]
growth in 14-hydroxycodeinone in hot acid [1]: no or minimal growth | ABUK (14-hydroxycodeinone) level, 2 hours in hot acid [1]: 2.5 ppm | ABUK (14-hydroxycodeinone) level, 5 hours in hot acid [1]: 3.3 ppm | ABUK (14-hydroxycodeinone) level, 24 hours in hot acid [1]: 6.4 ppm | ABUK (14-hydroxycodeinone) level, 0 hours in hot acid (T-zero) [1]: 2.5 ppm | ABUK (14-hydroxycodeinone) level, 0 hours in hot acid (T-zero) ([1]; listed as low ABUK oxycodone base): 2.7 ppm | ABUK (14-hydroxycodeinone) level, T-zero (dry heat test) [2]: 3.3 ppm | growth of 14-hydroxycodeinone, dry heat [2]: no growth | ABUK (14-hydroxycodeinone) level, 4 days at 62° C. [2]: 3.4 ppm | ABUK (14-hydroxycodeinone) level, 7 days at 62° C. [2]: 3.3 ppm | ABUK (14-hydroxycodeinone) level, 14 days at 62° C. [2]: 3.6 ppm | growth in the level of 14-hydroxycodeinone, dry heat at 62° C. [2]: No growth
